Target: T1, CpG methyltransferase (M.SssI MTase) (Spiroplasma monobiae, UniProt P15840)
T1 construct: gene sssIM
Experiment: coupled GlaI / RNase HII cleavage, Cy5 release from AuNP, single-molecule TIRF counting
Assay type: biochemical
Details: 600 nM hairpin DNA HS1; 320 μM SAM; 100 U/mL M.SssI; NEBuffer 2; 37 °C, 2 h; coupled assay; free nucleoside added, covalent mechanism only cited

T1 sequence (P15840 whole entry): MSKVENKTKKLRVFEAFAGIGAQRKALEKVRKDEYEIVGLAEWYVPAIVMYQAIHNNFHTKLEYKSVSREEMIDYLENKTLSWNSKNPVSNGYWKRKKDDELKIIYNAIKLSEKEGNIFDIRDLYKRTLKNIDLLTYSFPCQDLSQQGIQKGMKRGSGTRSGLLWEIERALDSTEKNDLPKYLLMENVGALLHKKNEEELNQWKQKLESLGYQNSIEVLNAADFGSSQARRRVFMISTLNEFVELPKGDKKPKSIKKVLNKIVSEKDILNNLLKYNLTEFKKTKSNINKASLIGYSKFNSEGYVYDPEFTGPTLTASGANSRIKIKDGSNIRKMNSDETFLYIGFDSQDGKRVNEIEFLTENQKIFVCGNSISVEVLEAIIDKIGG

- IC50: 640 nM
Structure (SMILES): Nc1ncn([C@H]2C[C@H](O)[C@@H](CO)O2)c(=O)n1 [decitabine]
